Like-named read-outs stand apart in the source and are kept apart here.
Legend:
[1] = target: T1, human adenosine A2A receptor (Homo sapiens, UniProt P29274); assay: [3H]-SCH-58261 binding assay, human adenosine A2A receptor; settings: human A2A receptor recombinantly expressed in CHO cell membranes, [3H]-SCH-58261 1 nM, Ki from IC50 by Cheng-Prussoff equation
T1 construct: expressed in transfected cells; host or cells: CHO cells, Semliki Forest virus expression system; membrane preparation
Protocol: Human Adenosine A2A Receptor
The human adenosine A2A receptor was recombinantly expressed in chinese hamster ovary (CHO) cells using the semliki forest virus expression system. Cells were harvested, washed twice by centrifugation, homogenized and again washed by centrifugation. The final washed membrane pellet was suspended in a Tris (50 mM) buffer containing 120 mM NaCl, 5 mM KCl, 2 mM CaCl2 and 10 mM MgCl2 (pH 7.4) (buffer A). The [^3H]-SCH-58261 (Dionisotti et al., […], Br J Pharmacol 121, 353; 1 nM) binding assay was carried out in 96-well plates in the presence of 2.5 μg of membrane protein, 0.5 mg of Ysi-poly-1-lysine SPA beads and 0.1 U adenosine deaminase in a final volume of 200 μl of buffer A. Non-specific binding was defined using xanthine amine congener (XAC; 2 μM). Compounds were tested at 10 concentrations from 10 μM-0.3 nM. All assays were conducted in duplicate and repeated at least two times. Assay plates were incubated for 1 hour at room temperature before centrifugation and then bound ligand determined using a Packard Topcount scintillation counter. IC50 values were calculated using a non-linear curve fitting program and Ki values calculated using the Cheng-Prussoff equation.

[2] = read-out: Ha2 (pKi) (converted)

T1 sequence (P29274 whole entry): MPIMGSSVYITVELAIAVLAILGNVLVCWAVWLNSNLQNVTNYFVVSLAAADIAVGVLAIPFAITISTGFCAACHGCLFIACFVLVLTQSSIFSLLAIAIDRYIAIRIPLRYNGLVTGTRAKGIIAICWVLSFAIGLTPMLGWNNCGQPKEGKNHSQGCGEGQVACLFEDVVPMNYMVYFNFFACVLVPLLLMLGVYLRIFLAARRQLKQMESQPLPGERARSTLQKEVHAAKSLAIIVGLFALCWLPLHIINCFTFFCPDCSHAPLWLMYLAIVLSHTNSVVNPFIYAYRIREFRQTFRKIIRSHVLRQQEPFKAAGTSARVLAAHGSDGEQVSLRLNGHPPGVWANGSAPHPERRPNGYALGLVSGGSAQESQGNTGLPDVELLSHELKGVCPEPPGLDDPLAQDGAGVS

SMILES	melting point [°C]	Ki [1, 2] [nM]	Ki ([1]; Ha2 (pKi)) [nM]
COc1ccc(C2CCOCC2)c2sc(NC(=O)N(C)CC3CCOC3)nc12 (stereo not drawn) [Example 25, 3-[4-Methoxy-7-(tetrahydro-pyran-4-yl)-benzothiazol-2-yl]-1-methyl-1-(tetrahydro-furan-3-ylmethyl)-urea]	185 to 186		
COCCN(C)Cc1cc(C(=O)Nc2nc3c(OC)ccc(C4COCCOC4)c3s2)ccn1 [Example 48, N-(7-[1,4]Dioxepan-6-yl-4-methoxy-benzothiazol-2-yl)-2-{[(2-methoxy-ethyl)-methyl-amino]-methyl}-isonicotinamide]	100 to 107		
COc1ccc(C2CCOCC2)c2sc(NC(=O)N(C)C3CC4CCC3O4)nc12 (single isomer, unassigned) [Example 55, (exo)-(+)-3-[4-Methoxy-7-(tetrahydro-pyran-4-yl)-benzothiazol-2-yl]-1-methyl-1-(7-oxa-bicyclo[2.2.1]hept-2-yl)-urea]	185 to 188	1.26	
COc1ccc(C2CCOCC2)c2sc(NC(=O)N(C)C3CCN(C)CC3)nc12 [Example 20, 3-[4-Methoxy-7-(tetrahydro-pyran-4-yl)-benzothiazol-2-yl]-1-methyl-1-(1-methyl-piperidin-4-yl)-urea]	152 to 155	2.51	
COc1ccc(C2CCOCC2)c2sc(NC(=O)N3CCC(CO)CC3)nc12 [Example 52, 4-Hydroxymethyl-piperidine-1-carboxylic acid [4-methoxy-7-(tetrahydro-pyran-4-yl)-benzothiazol-2-yl]-amide]	202 to 203.5	1	
COc1ccc(C2CCOCC2)c2sc(NC(=O)N(C)C3CCN(N(C)C)CC3)nc12 [Example 53, 1-(1-Dimethylamino-piperidin-4-yl)-3-[4-methoxy-7-(tetrahydro-pyran-4-yl)-benzothiazol-2-yl]-1-methyl-urea]	167 to 170		
COc1ccc(C2CCOCC2)c2sc(NC(=O)N3CC4CCC3CC4)nc12 [Example 32, 2-Aza-bicyclo[2.2.2]octane-2-carboxylic acid [4-methoxy-7-(tetrahydro-pyran-4-yl)-benzothiazol-2-yl]-amide]	237 to 239	2	
COc1ccc(C2COCCOC2)c2sc(NC(=O)c3ccc(CCl)cc3)nc12 [Example 39, 4-Chloromethyl-N-(7-[1,4]dioxepan-6-yl-4-methoxy-benzothiazol-2-yl)-benzamide]		1.58	
COc1ccc(C2COCCOC2)c2sc(NC(=O)c3ccnc(N4CCCC4)c3)nc12 [Example 46, N-(7-[1,4]Dioxepan-6-yl-4-methoxy-benzothiazol-2-yl)-2-pyrrolidin-1-yl-isonicotinamide]		2.51	
COc1ccc(C2COCCOC2)c2sc(NC(=O)C3CCCCC3)nc12 [Example 11, Cydohexanecarboxylic acid (7-[1,4]dioxepan-6-yl-4-methoxy-benzothiazol-2-yl)-amide]		2.51	
COc1ccc(C2COCCOC2)c2sc(NC(=O)c3ccc(C)s3)nc12 [Example 8, 5-Methyl-thiophene-2-carboxylic acid (7-[1,4]dioxepan-6-yl-4-methoxy-benzothiazol-2-yl)-amide]		1	
COc1ccc(C2CCOCC2)c2sc(NC(=O)C[C@H]3CC[C@H](O)CC3)nc12 [Example 50, (trans)-2-(4-Hydroxy-cyclohexyl)-N-[4-methoxy-7-(tetrahydro-pyran-4-yl)-benzothiazol-2-yl]-acetamide]	120 to 145	2.51	
COc1ccc(C2CCOCC2)c2sc(NC(=O)N(C)C3CC4CCC3O4)nc12 (racemic) [Example 26, (rac)-(exo)-3-[4-Methoxy-7-(tetrahydro-pyran-4-yl)-benzothiazol-2-yl]-1-methyl-1-(7-oxa-bicyclo[2.2.1]hept-2-yl)-urea]	197 to 200	1	
COc1ccc(C2CCOCC2)c2sc(NC(=O)N3C[C@@H]4C[C@H]3CO4)nc12 [Example 31, (1S,4S)-2-Oxa-5-aza-bicyclo[2.2.1]heptane-5-carboxylic acid [4-methoxy-7-(tetrahydro-pyran-4-yl)-benzothiazol-2-yl]-amide]	193 to 197	1.26	
COc1ccc(C2CCOCC2)c2sc(NC(=O)CC3CCCO3)nc12 (stereo not drawn) [Example 54, N-[4-Methoxy-7-(tetrahydro-pyran-4-yl)-benzothiazol-2-yl]-2-(tetrahydro-furan-2-yl)-acetamide]	170 to 174		
COc1ccc(C2CCOCC2)c2sc(NC(=O)N(C)[C@H]3CC[C@@H](O)CC3)nc12 [Example 22, cis-1-(4-Hydroxy-cyclohexyl)-3-[4-methoxy-7-(tetrahydro-pyran-4-yl)-benzothiazol-2-yl]-1-methyl-urea]	191 to 193	2.51	

SMILES	melting point [°C]	Ki [1, 2] [nM]	Ki ([1]; Ha2 (pKi)) [nM]
COc1ccc(C2COCCOC2)c2sc(NC(=O)c3ccnc(CN4CCCC4)c3)nc12 [Example 47, N-(7-[1,4]Dioxepan-6-yl-4-methoxy-benzothiazol-2-yl)-2-pyrrolidin-1-ylmethyl-isonicotinamide]	108 to 111		
COc1ccc(C2CCOCC2)c2sc(NC(=O)N3CCC(C)(O)CC3)nc12 [Example 30, 4-Hydroxy-4-methyl-piperidine-1-carboxylic acid [4-methoxy-7-(tetrahydro-pyran-4-yl)-benzothiazol-2-yl]-amide]	90 to 95	1.26	
COc1ccc(C2COCCOC2)c2sc(NC(=O)c3ccncc3)nc12 [Example 15, N-(7-[1,4]Dioxepan-6-yl-4-methoxy-benzothiazol-2-yl)-isonicotinamide]		2	
COc1ccc(C2CCOCC2)c2sc(NC(=O)N(C)C3CC4CCC3O4)nc12 (single isomer, unassigned) [Example 56, (exo)-(−)-3-[4-Methoxy-7-(tetrahydro-pyran-4-yl]-benzothiazol-2-yl)-1-methyl-1-(7-oxa-bicyclo[2.2.1]hept-2-yl)-urea]	155 to 190	3.16	
COc1ccc(C2CCOCC2)c2sc(NC(=O)N(C)C3CCOCC3)nc12 [Example 24, 3-[4-Methoxy-7-(tetrahydro-pyran-4-yl)-benzothiazol-2-yl]-1-methyl-1-(tetrahydro-pyran-4-yl)-urea]	237 to 238	3.16	
COc1ccc(C2COCCOC2)c2sc(NC(=O)c3cnn(C)c3)nc12 [Example 43, 1-Methyl-1H-pyrazole-4-carboxylic acid (7-[1,4]dioxepan-6-yl-4-methoxy-benzothiazol-2-yl)-amide]		0.398	
COc1ccc(C(=O)Nc2nc3c(OC)ccc(C4COCCOC4)c3s2)cc1 [Example 9, N-(7-[1,4]Dioxepan-6-yl-4-methoxy-benzothiazol-2-yl)-4-methoxy-benzamide]		2	
COc1ccc(C2CCOCC2)c2sc(NC(=O)N(C)[C@H]3CC[C@H](O)CC3)nc12 [Example 21, trans-1-(4-Hydroxy-cyclohexyl)-3-[4-methoxy-7-(tetrahydro-pyran-4-yl)-benzothiazol-2-yl]-1-methyl-urea]	160	2.51	
COc1ccc(C2CCOCC2)c2sc(NC(=O)N3CCC4(CC3)OCCO4)nc12 [Example 29, 1,4-Dioxa-8-aza-spiro[4.5]decane-8-carboxylic acid [4-methoxy-7-(tetrahydro-pyran-4-yl)-benzothiazol-2-yl]-amide]			1.58
COc1ccc(C2CCOCC2)c2sc(NC(=O)N(C)[C@H]3CC[C@@](C)(O)CC3)nc12 [Example 23, 1-(4-cis-Hydroxy-4-methyl-cyclohexyl)-3-[4-methoxy-7-(tetrahydro-pyran-4-yl)-benzothiazol-2-yl]-1-methyl-urea]	211 to 213	2	
COc1ccc(C2CCOCC2)c2sc(NC(=O)c3ccnc(CN4CCOCC4)c3)nc12 [Example 34, N-[4-Methoxy-7-(tetrahydro-pyran-4-yl)-benzothiazol-2-yl]-2-morpholin-4-ylmethyl-isonicotinamide]	199 to 201	2	
COc1ccc(C2COCCOC2)c2sc(NC(=O)c3ccc(F)cc3)nc12 [Example 10, N-(7-[1,4]Dioxepan-6-yl-4-methoxy-benzothiazol-2-yl)-4-fluoro-benzamide]		1.26	
CCC(=O)N(C)Cc1ccc(C(=O)Nc2nc3c(OC)ccc(C4COCCOC4)c3s2)cc1 [Example 44, N-(7-[1,4]Dioxepan-6-yl-4-methoxy-benzothiazol-2-yl)-4-[(methyl-propionyl-amino)-methyl]-benzamide]		2.51	
COc1ccc(C2COCCOC2)c2sc(NC(=O)c3cncn3C)nc12 [Example 14, 3-Methyl-3H-imidazole-4-carboxylic acid (7-[1,4]dioxepan-6-yl-4-methoxy-benzothiazol-2-yl)-amide]		1	
COc1ccc(C2CCOCC2)c2sc(NC(=O)[C@H]3CCCO3)nc12 [Example 51, (R)-Tetrahydro-furan-2-carboxylic acid [4-methoxy-7-(tetrahydro-pyran-4-yl)-benzothiazol-2-yl]-amide]	158 to 161		
